Experimental data as given in patent publication US7582803B2 (Amgen Inc., priority 2005, dated 2009).

Molecular target: T1, human GPR40 (Homo sapiens, UniProt O14842)
T1 construct: expressed in transfected cells; host or cells: CHO cells
Experiment: Cell-based aequorin assay
Conditions: CHO cells stably transfected with GPR40 and aequorin; 0.01% HSA; aequorin luminescence; read-out: Relative EC50
Description: Cell-based aequorin assays were employed to characterize the modulatory activity of compounds on the GPR40 signaling pathway. In an exemplary assay, CHO cells were stably transfected with both GPR40 and Aequorin (Euroscreen). Cells were detached from the tissue culture dish with 2 mL of trypsin (0.25% (w/v)). Trypsinization was halted with 28 mL of Hanks Buffered Salt Solution containing 20 mM Hepes (H/HBSS) and 0.01% fatty acid-free human serum albumin (HSA). Coelantrazine is added to 1 ug/mL, and the cells were incubated for 2 hours at room temperature. Compounds were dissolved in DMSO for preparation of 10 mM stock solutions. Compounds were diluted in H/HBSS containing 0.01% HSA. Serial dilutions of the test compounds were prepared to determine dose response.
Aequorin luminescence measurements were made using an EG&G Berthold 96-well luminometer, and the response was measured over a 20 second interval after cells and compounds were mixed. The maximum relative light units was plotted to determine dose response. The EC50 (effective concentration to reach 50% maximal response) was determined from the dose response plot.
Table 1 presents representative data (EC50 values) obtained for exemplary compounds of the invention for the relative activation of human GPR40. […]

T1 sequence (O14842 whole entry): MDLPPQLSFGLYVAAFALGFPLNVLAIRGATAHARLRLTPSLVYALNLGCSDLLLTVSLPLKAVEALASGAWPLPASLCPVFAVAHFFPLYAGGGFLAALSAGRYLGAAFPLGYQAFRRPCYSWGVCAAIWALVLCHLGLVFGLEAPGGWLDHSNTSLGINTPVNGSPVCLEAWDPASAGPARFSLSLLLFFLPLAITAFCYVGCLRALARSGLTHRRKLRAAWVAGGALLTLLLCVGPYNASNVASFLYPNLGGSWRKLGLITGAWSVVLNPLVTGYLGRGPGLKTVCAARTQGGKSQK

Row | EC50 | Structure (SMILES)
1 | 10 to 100 nM | CC#C[C@@H](CC(=O)O)c1ccc(OC2CCc3c(C)cccc32)cc1 (stereo partly drawn) [Example 16, (3S) 3-[4-(4-Methyl-indan-1-yloxy)-phenyl]-hex-4-ynoic acid]
2 | 10 to 100 nM | CC#C[C@@H](CC(=O)O)c1ccc(OC2CCc3c(-c4ccc(C(F)(F)F)cc4)cccc32)cc1 (stereo partly drawn) [Example 7]
3 | 100 to 1000 nM | Cn1ccnc1[C@@H](CC(=O)O)c1ccc(OCc2cc3c(cc2Br)C(C)(C)CCC3(C)C)cc1 [Example 91, (S)-3-(4-((3-Bromo-5,5,8,8-tetramethyl-5,6,7,8-tetrahydronaphthalen-2-yl)methoxy)phenyl)-3-(1-methyl-1H-imidazol-2-yl)propanoic acid]
4 | 1000 to 10000 nM | O=C(O)CC(c1ccc(OC2CCCCc3ccccc32)cc1)c1cccs1 (racemic) [Example 49, (+/−)3-(4-(6,7,8,9-Tetrahydro-5H-benzo[7]annulen-5-yloxy)phenyl)-3-(thiophen-2-yl)propanoic acid]
5 | 100 to 1000 nM | CC#CC(CC(=O)O)c1ccc(OC2CCC(c3ccccc3)CC2)cc1 [Example 29, (R,S)-3-(4-(4-phenylcyclohexyloxy)phenyl)hex-4-ynoic acid]
6 | 10 to 100 nM | CC#C[C@@H](CC(=O)O)c1ccc(OC2CCc3cc(C#N)ccc32)cc1 (stereo partly drawn) [Example 54, (3S)-3-(4-(5-Cyano-2,3-dihydro-1H-inden-1-yloxy)phenyl)hex-4-ynoic acid]
7 | 100 to 1000 nM | CCC1(CC)CCC(C)(C)c2ccc(COc3ccc([C@H](CC(=O)O)c4nccn4C)cc3)cc21 [Example 88, (S)-3-(4-((8,8-Diethyl-5,5-dimethyl-5,6,7,8-tetrahydronaphthalen-2-yl)methoxy)phenyl)-3-(1-methyl-1H-imidazol-2-yl)propanoic acid]
8 | 100 to 1000 nM | O=C(O)CC(c1ccc(OC2Cc3ccccc3C2)cc1)c1cc(F)ccc1F (racemic) [Example 37, (+/−)3-(2,5-Difluorophenyl)-3-(4-(2,3-dihydro-1H-inden-2-yloxy)phenyl)propanoic acid]
9 | 10 to 100 nM | CC#C[C@@H](CC(=O)O)c1ccc(OC2CCc3ccc(-c4ccc(C(F)(F)F)cc4)cc32)cc1 (stereo partly drawn) [Example 11, (3S)-3-(4-(6-(4-(trifluoromethyl)phenyl)-2,3-dihydro-1H-inden-1-yloxy)phenyl)hex-4-ynoic acid]
10 | 1000 to 10000 nM | CC1(C)CCC(C)(C)c2cc(COc3ccc(C(CC(=O)O)c4cncnc4)cc3)ccc21 (racemic) [Example 79, (R/S)-3-Pyrimidin-5-yl-3-[4-(5,5,8,8-tetramethyl-5,6,7,8-tetrahydro-naphthalen-2-ylmethoxy)-phenyl]-propionic acid]
11 | 100 to 1000 nM | O=C(O)CC(c1ccccc1)c1ccc(OC2CCc3cc(Br)ccc32)cc1 (racemic) [Example 41, (+/−)-3-[4-(5-Bromo-indan-1-yloxy)-phenyl]-3-phenyl-propionic acid]
12 | 10 to 100 nM | CC#C[C@@H](CC(=O)O)c1ccc(OC2CCc3ccccc32)cc1 (stereo partly drawn) [Example 46, (3S)-3-(4-(2,3-Dihydro-1H-inden-1-yloxy)phenyl)hex-4-ynoic acid]
13 | 1000 to 10000 nM | CC1(C)CCC(C)(C)c2cc(COc3ccc([C@@H](CC(=O)O)c4ccon4)cc3)ccc21 [Example 77, (R)-3-(Isoxazol-3-yl)-3-(4-((5,5,8,8-tetramethyl-5,6,7,8-tetrahydronaphthalen-2-yl)methoxy)phenyl)propanoic acid]
14 | 100 to 1000 nM | O=C(O)CC(c1ccc(OC2Cc3ccccc3C2)cc1)c1ccc(F)cc1F (racemic) [Example 38, (+/−)3-(2,4-Difluorophenyl)-3-(4-(2,3-dihydro-1H-inden-2-yloxy)phenyl)propanoic acid]
15 | 100 to 1000 nM | Cn1ccnc1[C@@H](CC(=O)O)c1ccc(OCc2ccc3c(c2)CCCC3)cc1 [Example 80, (S)-3-(i-Methyl-1H-imidazol-2-yl)-3-[4-(5,6,7,8-tetrahydro-naphthalen-2-ylmethoxy)-phenyl]-propionic acid]
16 | 100 to 1000 nM | CC1(C)CCC(C)(C)c2cc(COc3ccc([C@H](CC(=O)O)c4ccc(F)cc4)cc3)ccc21 [Example 89, (S)-3-(4-Fluorophenyl)-3-(4-((5,5,8,8-tetramethyl-5,6,7,8-tetrahydronaphthalen-2-yl)methoxy)phenyl)propanoic acid]
17 | 1000 to 10000 nM | Cc1cnc(C(CC(=O)O)c2ccc(OC3CCc4cc(Cl)ccc43)cc2)o1 (racemic) [Example 34, (+/−)-3-(4-(5-Chloro-2,3-dihydro-1H-inden-1-yloxy)phenyl)-3-(5-methyloxazol-2-yl)propanoic acid]
18 | 10 to 100 nM | CC#C[C@@H](CC(=O)O)c1ccc(O[C@H]2CCc3cc(Br)ccc32)cc1 [Example 45, (S)-3-(4-((S)-5-bromo-2,3-dihydro-1H-inden-1-yloxy)phenyl)hex-4-ynoic acid]

Row | EC50 | Structure (SMILES)
19 | 10 to 100 nM | CC#C[C@@H](CC(=O)O)c1ccc(OC2CCc3cc(F)ccc32)cc1 (stereo partly drawn) [Example 14, (3S)-3-(4-(5-Fluoro-2,3-dihydro-1H-inden-1-yloxy)phenyl)hex-4-ynoic acid]
20 | 1000 to 10000 nM | O=C(O)CC(c1ccc(OC2Cc3ccccc3C2)cc1)c1c(F)cccc1F (racemic) [Example 39, (+/−)3-(2,6-Difluorophenyl)-3-(4-(2,3-dihydro-1H-inden-2-yloxy)phenyl)propanoic acid]
21 | 10 to 100 nM | CC#C[C@@H](CC(=O)O)c1ccc(OC2CCCc3ccccc32)cc1 (stereo partly drawn) [Example 24, (3S)-3-[4-(1,2,3,4-Tetrahydro-naphthalen-1-yloxy)-phenyl]-hex-4-ynoic acid]
22 | 10 to 100 nM | CC#C[C@@H](CC(=O)O)c1ccc(OC2c3ccccc3CC2C)cc1 (mixture of isomers) [Example 21, (3S)-3-[4-(2-Methyl-indan-1-yloxy)-phenyl]-hex-4-ynoic acid]
23 | 1000 to 10000 nM | Cn1ccnc1[C@@H](CC(=O)O)c1ccc(OC2CCc3cc(Cl)ccc32)cc1 (stereo partly drawn) [Example 58, (3S)-3-(4-(5-Chloro-2,3-dihydro-1H-inden-1-yloxy)phenyl)-3-(1-methyl-1H-imidazol-2-yl)propanoic acid]
24 | 100 to 1000 nM | Cn1cncc1[C@@H](CC(=O)O)c1ccc(OCc2ccc3c(c2)C(C)(C)CCC3(C)C)cc1 [Example 74, (S)-3-(1-methyl-1H-imidazol-5-yl)-3-(4-((5,5,8,8-tetramethyl-5,6,7,8-tetrahydronaphthalen-2-yl)methoxy)phenyl)propanoic acid]
25 | 10 to 100 nM | CC#C[C@@H](CC(=O)O)c1ccc(OC2CCc3c(Br)cccc32)cc1 (stereo partly drawn) [Example 5, (3S)-3-[4-(4-Bromo-indan-1-yloxy)-phenyl]-hex-4-ynoic acid]
26 | > 10000 nM | CC#C[C@H](CC(=O)O)c1ccc(OC2CCc3cc(-c4cccc(OCC)c4)ccc32)cc1 (stereo partly drawn) [Example 59, (3R)-3-(4-(5-(3-Ethoxyphenyl)-2,3-dihydro-1H-inden-1-yloxy)phenyl)hex-4-ynoic acid]
27 | 100 to 1000 nM | CC#C[C@@H](CC(=O)O)c1ccc(OC2CCc3c(OC)ccc(OC)c32)cc1 (stereo partly drawn) [Example 20, (3S)-3-[4-(4,7-Dimethoxy-indan-1-yloxy)-phenyl]-hex-4-ynoic acid]
28 | 100 to 1000 nM | CC#C[C@@H](CC(=O)O)c1ccc(OC2CCc3cc(-c4cc(OC)ccc4F)ccc32)cc1 (stereo partly drawn) [Example 55, (3S)-3-(4-(5-(2-Fluoro-5-methoxyphenyl)-2,3-dihydro-1H-inden-1-yloxy)phenyl)hex-4-ynoic acid]
29 | 10 to 100 nM | CC#C[C@@H](CC(=O)O)c1ccc(OC2CCCc3c(Br)cccc32)cc1 (stereo partly drawn) [Example 25, (3S)-3-[4-(5-Bromo-1,2,3,4-tetrahydro-naphthalen-1-yloxy)-phenyl]-hex-4-ynoic acid]
30 | 10 to 100 nM | CC1(C)CCC(C)(C)c2cc(COc3ccc([C@H](CC(=O)O)c4ccon4)cc3)ccc21 [Example 76, (S)-3-(Isoxazol-3-yl)-3-(4-((5,5,8,8-tetramethyl-5,6,7,8-tetrahydronaphthalen-2-yl)methoxy)phenyl)propanoic acid]
31 | 100 to 1000 nM | CC1(C)CCC(C)(C)c2cc(COc3ccc([C@H](CC(=O)O)c4cnco4)cc3)ccc21 [Example 75, (S)-3-(Oxazol-5-yl)-3-(4-((5,5,8,8-tetramethyl-5,6,7,8-tetrahydronaphthalen-2-yl)methoxy)phenyl)propanoic acid]
32 | 10 to 100 nM | Cn1nnnc1[C@@H](CC(=O)O)c1ccc(OCc2ccc3c(c2)C(C)(C)CCC3(C)C)cc1 [Example 81, (S)-3-(1-Methyl-1H-tetrazol-5-yl)-3-[4-(5,5,8,8-tetramethyl-5,6,7,8-tetrahydro-naphthalen-2-ylmethoxy)-phenyl]-propionic acid]
33 | 100 to 1000 nM | CC#C[C@@H](CC(=O)O)c1ccc(OCCC2CCCCC2)cc1 [Example 69, (S)-3-(4-(2-cyclohexylethoxy)phenyl)hex-4-ynoic acid]
34 | 1000 to 10000 nM | O=C(O)CC(c1ccc(OC2CCC(c3ccccc3)CC2)cc1)c1cccs1 (racemic) [Example 31, (+/−)-3-(4-(4-Phenylcyclohexyloxy)phenyl)-3-(thiophen-2-yl)propanoic acid]
35 | 10 to 100 nM | CC#C[C@@H](CC(=O)O)c1ccc(OC2Cc3ccccc3C2)cc1 [Example 27, (3S)-3-[4-(Indan-2-yloxy)-phenyl]-hex-4-ynoic acid]

Row | Structure (SMILES) | EC50
36 | CC#C[C@@H](CC(=O)O)c1ccc(OC2CCc3ccc(-c4cc(C)ccc4OCCCC)cc32)cc1 (stereo partly drawn) [Example 12, (3S)-3-{4-[6-(2-Butoxy-5-methyl-phenyl)-indan-1-yloxy]-phenyl}-hex-4-ynoic acid] | 10 to 100 nM
